The text below walks through data of patent publication US20160369234A1, “CONVERSION OF SOMATIC CELLS TO INDUCED REPROGRAMMED NEURAL STEM CELLS (IRNSCS)” (Hoffmann-La Roche Inc., priority 2010, published 2016).

What all share (assay type): cell-based
For assay [1], the system named is irNSC neurospheres from human fibroblasts IMR90. Briefly: Expansion of irNSC neurospheres with or without Fasudil in expansion medium (FIG. 9). The settings on record: expansion medium with Fasudil vs without; Day 15. On the procedure: FIG. 9: Generation of a batch of irNSC neurospheres for expansion and characterization. 3.6 million human fibroblasts IMR90 were trypsinized and infected in a small volume with: Sox2, Bmi1, nestin GFP reporter using the induction medium (N2B27 with FGF, EGF 30 ng/ml BDNF 20 ng/ml) supplemented with Fasudil 10 μM and Polybrene 4 μg/ml. From Day 4 to Day 8: The GFP+ neurospheres bigger than 50 μm were harvested and further used for expansion. Half of the neurospheres have been expanded using the expansion medium (N2B27 with FGF, EGF 30 ng/ml BDNF 20 ng/ml) with Fasudil and the other half without Fasudil.
The irNSCs have a typical NSC morphology and were Sox2 and Nestin positive (FIG. 10).
Expansion Medium: N2B27 supplemented with human EGF (Peprotech) 30 ng/ml, human FGF2 30 ng/ml (Peprotech), human BDNF (Roche) 20 ng/ml, or
1. […]

Another assay deals with human fibroblasts. Briefly: Reprogramming of human fibroblasts to irNSCs with or without Fasudil in induction medium, neurosphere count (FIG. 6). The following applies: Fasudil added to induction medium, nestin reporter lentivirus; day 3. The text has this:
The method can be illustrated by reference to FIG. 1 herein, which depicts a method according to the invention being used for converting human fibroblasts to neural stem cells (NSCs). In this method human fibroblast were trypsinized at day 0, counted and their viability determined. Between 1.0×10^5-3.0×10^5 trypsinized fibroblasts were then resuspended in the induction medium and the combination of genes delivered as lentiviruses. At the induction medium polybrene (hexadimethrine bromide) was added to increase the efficiency of the lentiviruses transduction. The infection was performed for 15 minutes in an eppendorf tube. In combination with the genes, a human Nestin GFP reporter was used. Nestin is a well known marker expressed specifically in NSCs. In the nestin reporter the fluorescent protein GFP is under expression of the human nestin promoter (FIG. 2), therefore it allows an easy screen for induced reprogrammed neural stem cells (irNSCs) GFP+.
The infected cells were plated in tissue culture plates using a concentration of 10000-30000 cells/cm^2 in the appropriate volume of induction medium. At day 1 the total induction medium was renewed. It was possible to identify some irNSC GFP+ (FIG. 3) with a clear change in morphology compared to the human fibroblasts. The irNSCs GFP+ acquired a bipolar and elongated morphology with a more condensed cytoplasm, typical of NSCs. […]

Assay [2] relates to Human fibroblasts IMR90. The assay is described as follows: Generation of GFP+ irNSC neurospheres, Fasudil versus Balanol-like-324 compound in induction medium (FIG. 11). As for the experimental part: FIG. 11: Comparison of Fasudil versus Balanol-like-324 compound stimulation to generate irNSC neurospheres. Human fibroblasts IMR90 were trypsinized and infected in a small volume with: Sox2, Bmi1, nestin GFP reporter using the induction medium (NeuroCult® NS-A Proliferation Kit (Human, StemCells Technologies) with FGF, EGF BDNF 20 ng/ml; Heparin 2 μg/ml; Polybrene 4 μg/ml) supplemented with Fasudil 10 μM (hatched graph) or Balanol-like-324 compound 2 μM (black graph). Fibroblasts were plated in a normal tissue culture plate at a concentration of 10000-30000 cells/cm^2. Day 1: Media change with fresh induction medium. Day 4: The GFP+ neurospheres bigger than 50 μm were counted.
Induction Medium: N2B27 (N2B27 is a 1:1 mixture of DMEM/F12 (Gibco, Paisley, UK) supplemented with N2 and B27 (both from Gibco) supplemented with human EGF (Peprotech) 30 ng/ml, human FGF2 30 ng/ml (Peprotech), human BDNF (Roche) 20 ng/ml and Fasudil (Calbiochem) 10 μM or Balanol-like-324 compound (N-{(3R,4R)-4-[4-(2-Fluoro-6-hydroxy-3-methoxy-benzoyl)-benzoylamino]-azepan-3-yl}-4-hydroxy-3,5-dimethyl-benzamide) 2 μM.
1. Generation of the irNSCs: • 200.000 IMR90 human fibroblasts infected with the lentiviruses for different genes combination (multiplicity of infection (M.O.I.) used for each single lentivirus 30) and the reporter nestin GFP lentivirus (M.O.I. used 10) in an eppendorf with 300 μl induction medium with polybrene (hexadimethrine bromide, Sigma) 4 μg/ml. • Incubate at room temperature for 15 min. • Plate the 300 μl in 1.7 ml induction medium in a well of a 6-well-plate tissue treated • Day 1, renew the 2 ml of induction medium/each well • Day 3, harvest of the neurospheres collecting carefully the 2 ml with the floating spheres • Expand the neurospheres2. […]

Assay [3] relates to Human fibroblasts IMR90. Briefly: Pre-treatment of human fibroblasts with Valproic Acid before infection, yield of GFP+ irNSC neurospheres (FIG. 12). The following applies: VPA 1 mM pre-treatment 48 hours vs without; Day 7; n=3. As for the experimental part:
FIG. 12: Pre-treatment of human fibroblasts with Valproic Acid (VPA) improves the yield of GFP+ irNSC neurospheres. Human fibroblasts IMR90 were pre-treated for 48 hours with or without the HDAC inhibitor Valproic Acid (2-propyl-pentanoic acid, monosodium salt) (1 mM) prior infection with: Sox2, Bmi1, nestin GFP reporter. Induction medium (NeuroCult® NS-A Proliferation Kit (Human, StemCells Technologies) with FGF, EGF BDNF 20 ng/ml; Heparin 2 μg/ml; Balanol-like-324 2 μM). Day 7: The Neurospheres bigger than 50 μm were counted (Panel A) and the average number of GFP+ irNSC per neurosphere is reported (Panel B). Representative pictures for the irNSCs neuropheres generated with the VPA pre-treatment (Panel C).
To increase the yield of irNSCs, human fibroblasts were pretreated with or without the HDAC inhibitor Valproic Acid (VPA, 2-propyl-pentanoic acid, monosodium salt). Towards this end, the human fibroblasts were incubated in DMEM/F12 supplemented with FBS 10% and L-glutamine supplemented with 1 mM VPA prior to infection (FIG. 12).

Turning to `O=S(=O)(c1cccc2cnccc12)N1CCCNCC1` [Fasudil, 1-(5-Isoquinolinesulfonyl)homopiperazine], the neurosphere morphology entry in assay [1] is “better morphology and clear and sharp borders”. For the same compound, in the assay on human fibroblasts, the generation of neurospheres entry was “generation of neurospheres (around 50 μm)”.
Consider `COc1ccc(O)c(C(=O)c2ccc(C(=O)N[C@@H]3CCCNC[C@H]3NC(=O)c3cc(C)c(O)c(C)c3)cc2)c1F` [Balanol-like-324 compound, N-{(3R,4R)-4-[4-(2-Fluoro-6-hydroxy-3-methoxy-benzoyl)-benzoylamino]-azepan-3-yl}-4-hydroxy-3,5-dimethyl-benzamide], for which, in the assay with Human fibroblasts IMR90 [2] (Balanol-like-324 2 μM vs Fasudil 10 μM, Day 4, STDEV, n=3), the “reproducibility of neurosphere generation versus Fasudil” value is given as “better reproducibility”. Moreover, the “increase in efficiency of the neurospheres generation (GFP+ neurospheres bigger than 50 μm) versus Fasudil” value in the assay on Human fibroblasts IMR90 [2] (Balanol-like-324 2 μM vs Fasudil 10 μM, Sox2, Bmi1, nestin GFP reporter, Day 4, n=3) is listed as roughly 1.9 fold. Besides, the “yield of GFP+ neurospheres” value in the assay with Human fibroblasts IMR90 [2] (FIG. 11, Rock kinase inhibitor in induction medium) is on record as “increases the yield”.
Turning to `CCCC(CCC)C(=O)[O-].[Na+]` [VPA, 2-propyl-pentanoic acid, monosodium salt], in the assay with Human fibroblasts IMR90 [3], the “increase in number of GFP+ irNSCs per neurosphere” value is 2.1 fold and the “number of neurospheres bigger than 50 μm” value is “did not significantly affect”.
